# Source: patent US20240050727A1, “DEVICES FOR FORMING IN SITU MICRONEEDLES AND METHODS THEREOF” (University of Connecticut, priority 2022, published 2024)
# “Also recorded” adds a separate entry of the source.
# System: C. albicans
# Test: Antifungal activity in 3D culture model (C. albicans 3D fungal biofilms in CHROMagar)
# Format: cell-based
# Conditions: for superficial regrowth of preformed fungal biofilm: t=48 h preformed biofilm, monitored for 48 hr
# Method: Antifungal activity. The antifungal activity was performed using an in-lab developed 3D culture model. C. Albicans was seeded at a density of 10^7 cells/mL and cultured for 48 h on CHROMagar. The 3D culture gels were treated with PBS and Caspofungin either topically or using the in-situ microneedle device and methodology. Samples were cut for in-depth imaging after 48 h of treatment and fungal inhibition was evaluated. Experiments were performed to assess the feasibility of the disclosed device in the treatment of infection. 10^6 cells/ml of C. albicans were inoculated in liquid CHROMagar™ and allowed to form 3D fungal biofilms. PBS or 32 μg/ml of Caspofungin (CPF) was applied topically and via a microneedling device immediately after the agar solidified (t=0 h) or 48 h after biofilm growth (t=48 h). The growth and distribution of C. albicans was monitored for 48 hr.
smiles,measurement,setting,value
"CC[C@H](C)C[C@H](C)CCCCCCCCC(=O)N[C@H]1C[C@@H](O)[C@@H](NCCN)NC(=O)[C@@H]2[C@@H](O)CCN2C(=O)[C@H]([C@H](O)CCN)NC(=O)[C@H]([C@H](O)[C@@H](O)c2ccc(O)cc2)NC(=O)[C@@H]2C[C@@H](O)CN2C(=O)[C@H]([C@@H](C)O)NC1=O [CPF, Caspofungin]",3D growth of fungal biofilm (fluorescence images of slices),32 μg/ml CPF administered by drop,reduced the 3D growth
same,3D growth of fungal biofilm (fluorescence images of slices),32 μg/ml CPF administered by microneedle system,reduced the 3D growth
same,superficial regrowth of preformed fungal biofilm,32 μg/ml CPF applied topically via drop,not able to regrow on the surface; also recorded: prevention of superficial growth
same,superficial regrowth of preformed fungal biofilm,32 μg/ml CPF applied via microneedle system,not able to regrow on the surface; also recorded: prevention of superficial growth
same,fungal biofilm 3D growth at t=48 h,"32 μg/ml CPF, microneedling system vs drop, applied 48 h after biofilm growth",effective in reducing the fungal biofilm growth only when administered via the microneedling system; also recorded: reduced only when CPF was administered via microneedles
same,overall biofilm thickness and biofilm growth at depth (calcofluor fluorescence signal),"CPF, microneedle delivery",reduces the overall biofilm thickness and biofilm growth at depths lower than 1 mm
